Data published in patent US8715949B2, “Applications of the binding interaction of proanthocyanidins with bacteria and bacterial components” (priority 2006, dated 2014).

Experiments:
[1] = Stationary LPS-FITC binding assay on glass waveguide-immobilized PACs; set-up: species or system E. coli; conditions: patterned from 10 mg/mL solutions; LPS-FITC incubated 1 hour
Description: To determine the ability of PAC materials to effectively bind bacteria and bacterial cell components upon immobilization to a solid support, PACs from cranberry and grape juices were covalently attached to the surface of a glass microscope slide (waveguide) using a modification of a common technique used for protein immobilization (Rowe et al., Anal. Chem., 71, 3846 (1999)). Catechin monomer and buffer only areas were also included as controls. Briefly, the waveguides, glass microscope slides (Daigger, Wheeling, Ill.), were cleaned by immersion in potassium hydroxide/methanol solution (Cras et al., Biosens. Bioelectron., 14, 683 (1999)) followed by rinsing and drying. The clean waveguides were then incubated with 2% (3-mercaptopropyl)triethoxysilane (Pierce Chemicals, Rockford, Ill.) in toluene for 45 minutes followed by rinsing and drying. The slides were immersed in 1.8 mM N-[p-maleimidophenyl]isocyanate (PMPI) in ethanol for 1 hour. The maleimide-group of PMPI reacts with the sulfhydryl-group provided by the silane reaction leaving the isocyanate-group free to react with the hydroxyl-groups of PACs. […]
The ability of the immobilized PACs to bind LPS was investigated using a stationary assay. […] Slides were imaged using evanescent wave fluorescence spectroscopy with excitation at 496 nm and emission collected above 515 nm. […]

[2] = tested on: HEK-CD14-TLR4/MD2 cells; test: Cytotoxicity, cell proliferation assay (CellTiter96); type: cell-based, human; conditions: 48 h culture
Protocol: Cellular toxicity was measured using a […] cell proliferation assay (CellTiter96™, Promega). HEK-CD14-TLR4/MD2 cells were seeded into the wells of a 96-well plate (1×10^4 cells/well) and cultured with a dose range of test compounds for 48 h prior to assay according to the manufacturer's instructions.

[3] = tested on: HEK 293 cells stably expressing human CD14 and TLR4/MD2; test: LPS membrane binding in HEK-CD14-TLR4/MD2 cells; type: cell-based; conditions: 25 nM LPS, 1.5 h, 37° C.; 0.5 μM PAC; antibodies 500 nM in binding sites
Protocol: Human embryonic kidney cells (HEK 293) stably expressing human CD14 and TLR4/MD2 (HEK-CD14-TLR4/MD2; Invivogen) were grown in chambered wells and incubated with 25 nM LPS (E. coli serotype 055:B5, Sigma) in the absence or presence of 0.5 μM LH20 PAC (Dial>6K) for 1.5 h at 37° C. […] After incubation, the cells were washed with PBS (10 min) twice and either fixed (with 3.7% paraformaldehyde) to assess LPS membrane binding or fixed and permeabilized (with 0.1% Triton X-100) to determine LPS internalization. After blocking with 1% normal goat serum, membrane bound or internalized LPS was detected using a goat anti-LPS antibody (O/K serotype-specific, Abeam) conjugated to fluorescein. Nuclei were counterstained with DAPI. Imaging was performed using an Olympus IX-71 microscope. The relative amounts of membrane-associated or intracellular fluorescence were quantified by image analysis using Image J software (NIH, v. 1.37). Data is reported as the mean channel fluorescence from membrane-associated or internalized LPS and represents the analysis of 10 to 20 cells from each sample (minimum 10 measurements per each cell). Merged images were produced using Photoshop CS2 (ver. 9).

[4] = Pull-down of FITC-LPS by PAC beads after equilibration with lipid A; type: binding, E. coli; conditions: lipid A concentrations as high as 100 μM
Protocol: Fluorescence-based pull down assays for lipopolysaccharide (LPS) were conducted in 50 mM TRIS at pH 8.0 using Sepharose-immobilized PACs and agarose-immobilized polymyxin B (Sigma-Aldrich, St. Louis, Mo.). Immobilized capture molecules and LPS were incubated at room temperature for 1 hour with constant agitation followed by rinsing and transfer to a 96-well plate. The fluorescence of the FITC-labeled LPS (from E. coli 055:B5; Sigma-Aldrich) was measured using a Tecan XSafire monochrometer-based micro plate reader at 495 nm excitation and 520 nm emission (5 nm bandwidths).
To further investigate this potential interaction, an assay for the presence of FITC-LPS using PAC-beads was conducted after equilibration of the PAC beads with varying concentrations of lipid A (FIG. 11). Assays were conducted with 3 μg/mL FITC-LPS (approx. 3 nM).

Substance: catechin
- binding of LPS-FITC by substance immobilized on glass waveguide [1]: no binding even at the highest concentrations tested

Substance: diphosphoryl lipid A
- concentrations at which toxicity was not elicited [2]: below 3 μM
- decrease in membrane-bound LPS [3]: did not significantly reduce LPS membrane binding
- inhibition of FITC-LPS binding by immobilized PACs at high lipid A concentration [4]: ≤ 80%
